{"source": "patent US20120088803A1", "about": "“CONTROL AGENT FOR SOFT ROT AND CONTROL METHOD FOR THE SAME” (Ishihara Sangyo Kaisha, Ltd, priority 2009, published 2012)", "format_in_all_cases": "in vivo, Erwinia carotovora", "key": {"Chinese cabbage soft rot [1]": {"system": "Chinese cabbage soft rot", "assay": "Test for disease control of Chinese cabbage, field (Example 1 / Comparative Example 1)", "parameters": "key to Disease incidence rate: % of examined plants that are diseased; key to Disease control value: (1 − severity treated/severity untreated) × 100; key to Disease severity: Σ(plants per class × index 0–4)/(plants examined × 4) × 100", "details": "for Disease incidence rate / Disease severity / Disease control value: 63 days; for Disease control value: vs untreated plot; for Control effect on Chinese cabbage soft rot (in words): Table 1 test, moderate incidence conditions, fluazinam 250 g ai/10 a on soil, streptomycin 1/1000 foliage spraying", "method": "Preparation was performed using 500 g/L of 3-chloro-N-(3-chloro-5-trifluoromethyl-2-pyridyl)-alpha,alpha,alpha-trifluoro-2,6-dinit ro-p-toluidine (fluazinam (common name), Frowncide SC (trade name), manufactured by Ishihara Sangyo Kaisha, Ltd.) such that the amount of the active ingredient was 250 g ai/10 a (500 mL product/10 a), and the amount of dilution water was 150 L/10 a.\nThe spray solution prepared in the above was sprayed onto cultivation soil in a field such that the spraying amount was 0.25 g/m^2 (150 L/10 a), and thereafter, a mulch-sheet for agricultural use was spreaded on the soil. After planting holes for settlement (diameter: about 5 cm) were made, seedlings of Chinese cabbage (cultivar: Musou) grown for 4 weeks in a cell tray (128 holes/nursery box) were planted such that 30 seedlings were planted in one test plot having an area of 6 m^2 with three replications.\nPreparation was performed by diluting streptomycin (Mycin 20 wettable powder (trade name), manufactured by Hokko Chemical Industry Co., Ltd.) with water to 1/1000.\nIn a field covered with a mulch-sheet for agricultural use, seedlings of Chinese cabbage (cultivar: Musou) grown in a cell tray were planted, in the same manner as in Example 1, and foliage application was performed by spraying the spray solution of streptomycin prepared in (1) (spraying amount per application: 200 L/10 a) twice (39 days and 47 days after the planting of the seedlings).\nThe degree of disease incidence was examined for all the plants in each test plot 63 days after the start of the test, and the disease incidence rate, the disease severity, and the disease control value were calculated according to the following equations, and the test results are shown in Table 1.\n(§1) (Disease incidence rate)=[(number of diseased plants)/(number of plants examined)]*100\n(§2) (Disease severity)={S [(number of diseased plants in each class into which the plants are classified according to the degree of disease)*(disease index)]/[(number of plants examined)*4]}*100\n(§3) (Disease control value)={1-[(Disease severity in treated plot)/(Disease severity in untreated plot)]}*100\n(§4) Incidentally, the evaluation criteria for the disease index are as follows. • (Disease index) • 0: No lesion • 1: Lesions appear only in part of outer leaves (shipment can be made). • 2: Lesions appear in outer leaves and part of head leaves (the damaged part is removed and shipment as a small size plant can be made, rated Grade B). • 3: Lesions appear in most head leaves or more (shipment cannot be made). • 4: Lesions appear in the entire plant and the plant dies."}, "Chinese cabbage soft rot [2]": {"system": "Chinese cabbage soft rot", "assay": "Test for disease control of Chinese cabbage, field (Example 2)", "parameters": "key to Disease incidence rate: % of examined plants that are diseased; key to Disease control value: (1 − severity treated/severity untreated) × 100; key to Disease severity: Σ(diseased plants per class × index 0-4)/(plants × 4) × 100", "details": "250 g ai/10 a, 50 days", "description": "as §1, §2, §3, §4\n(§5) Preparation was performed using 500 g/L of • 3-chloro-N-(3-chloro-5-trifluoromethyl-2-pyridyl)-alpha,alpha,alpha-trifluoro-2,6-dinit ro-p-toluidine (fluazinam, Frowncide SC (trade name), manufactured by Ishihara Sangyo Kaisha, Ltd.) such that the amount of the active ingredient was 250 g ai/10 a (500 mL product/10 a), and the amount of dilution water was 150 L/10 a.\n(§6) A mulch-sheet for agricultural use was spreaded on soil, and planting holes for settlement (diameter: about 5 cm) were made, and then, the spray solution prepared in the above was sprayed onto the planting holes such that the spraying amount was 0.25 g/m^2 (150 L/10 a), followed by air-drying. Then, seedlings of Chinese cabbage (cultivar: Yumebuki) grown for 4 weeks in a cell tray (128 holes/nursery box) were planted such that 34 to 40 seedlings were planted in one test plot having an area of 4.8 m^2 with three replications.\n(§7) The degree of disease incidence was examined for all the plants in each test plot 50 days after the start of the test, and the disease severity and the disease control value were evaluated. Incidentally, the disease severity and the disease control value were obtained in the same manner as described above."}, "Chinese cabbage soft rot [3]": {"system": "Chinese cabbage soft rot", "assay": "Test for disease control of Chinese cabbage with or without mulch-sheet, field (Example 5)", "parameters": "key to Disease incidence rate: % of examined plants that are diseased; key to Disease control value: (1 − severity treated / severity untreated) × 100; key to Disease severity: Σ(plants per class × index 0-4)/(plants examined × 4) × 100", "details": "250 g ai/10 a; for Disease incidence rate / Disease severity / Disease control value: 150 L/10 a, Harebutai 65, 64 days; for Disease control value: vs untreated plot", "description": "as §1, §2, §3, §4\nas §5, with “of” for “of •”\nas §6, with “Harebutai 65)” for “Yumebuki)”, “19” for “34 to 40”, “2.4” for “4.8”, “two” for “three”\nThe spray solution prepared in the above was sprayed onto the planting holes such that the spraying amount was 0.25 g/m^2 (150 L/10 a) without spreading a mulch-sheet for agricultural use, followed by air-drying. Then, seedlings of Chinese cabbage (cultivar: Harebutai 65) grown for 4 weeks in a cell tray (128 holes/nursery box) were planted such that 19 seedlings were planted in one test plot having an area of 2.4 m^2 with two replications.\nas §7, with “64” for “50”"}, "[4]": {"details": "250 g ai/10 a, 150 L/10a onto cultivation soil, Musou, Average of replications"}, "[5]": {"details": "150 L/10 a onto planting holes, Yumebuki, Average of replications"}, "[6]": {"details": "with mulch-sheet for agricultural use, Average"}, "[7]": {"details": "with mulch-sheet for agricultural use, single replications I-II"}, "[8]": {"details": "without mulch-sheet for agricultural use, Average"}, "[9]": {"details": "1/1000 dilution, foliage application twice, Musou, Average of replications"}}, "note": "Where “and” joins values, the source holds several entries; their conditions need not be identical. Equal values may be shown once.", "data": [{"compound": "O=[N+]([O-])c1cc(C(F)(F)F)c(Cl)c([N+](=O)[O-])c1Nc1ncc(C(F)(F)F)cc1Cl", "note": "[Fluazinam, 3-chloro-N-(3-chloro-5-trifluoromethyl-2-pyridyl)-alpha,alpha,alpha-trifluoro-2,6-dinit ro-p-toluidine]", "values": [{"measurement": "Disease incidence rate", "setting": "Chinese cabbage soft rot [1]; [4]", "value": 13.3}, {"measurement": "Disease severity", "setting": "Chinese cabbage soft rot [1]; [4]", "value": 6.4}, {"measurement": "Disease severity", "setting": "Chinese cabbage soft rot [1]; 250 g ai/10 a, 150 L/10a onto cultivation soil, Musou, single replications I-III", "value": "5.0 and 8.3 and 5.8"}, {"measurement": "Disease control value", "setting": "Chinese cabbage soft rot [1]; 250 g ai/10 a, 150 L/10a onto cultivation soil, Musou", "value": 81.7}, {"measurement": "Disease incidence rate", "setting": "Chinese cabbage soft rot [1]; 250 g ai/10 a, 150 L/10a sprayed onto cultivation soil before mulch-sheet, cultivar Musou, single replications I-III", "value": "16.7 and 13.3 and 10.0"}, {"measurement": "Control effect on Chinese cabbage soft rot (in words)", "setting": "Chinese cabbage soft rot [1]", "value": "a control effect on Chinese cabbage soft rot was observed"}, {"measurement": "Disease incidence rate", "setting": "Chinese cabbage soft rot [2]; [5]", "value": 45.4}, {"measurement": "Disease severity", "setting": "Chinese cabbage soft rot [2]; [5]", "value": 16.4}, {"measurement": "Disease severity", "setting": "Chinese cabbage soft rot [2]; 150 L/10 a onto planting holes, Yumebuki, single replications I-III", "value": "19.4 and 13.1 and 16.7"}, {"measurement": "Disease control value", "setting": "Chinese cabbage soft rot [2]; 150 L/10 a onto planting holes, Yumebuki, vs untreated plot", "value": 66.4}, {"measurement": "Disease incidence rate", "setting": "Chinese cabbage soft rot [2]; 150 L/10 a sprayed onto planting holes of mulch-sheet, cultivar Yumebuki, single replications I-III", "value": "55.0 and 37.5 and 43.6"}, {"measurement": "Control effect without mulch-sheet compared with treated plot covered with mulch-sheet (in words)", "setting": "Chinese cabbage soft rot [3]; Table 5 test, moderate incidence conditions", "value": "substantially equal"}, {"measurement": "Disease incidence rate", "setting": "Chinese cabbage soft rot [3]; [6]", "value": 31.2}, {"measurement": "Disease severity", "setting": "Chinese cabbage soft rot [3]; [6]", "value": 8.5}, {"measurement": "Disease incidence rate", "setting": "Chinese cabbage soft rot [3]; [7]", "value": "23.5 and 38.9"}, {"measurement": "Disease severity", "setting": "Chinese cabbage soft rot [3]; [7]", "value": "5.9 and 11.1"}, {"measurement": "Disease control value", "setting": "Chinese cabbage soft rot [3]; with mulch-sheet for agricultural use", "value": 73.1}, {"measurement": "Disease incidence rate", "setting": "Chinese cabbage soft rot [3]; [8]", "value": 28.9}, {"measurement": "Disease severity", "setting": "Chinese cabbage soft rot [3]; [8]", "value": 8.6}, {"measurement": "Disease control value", "setting": "Chinese cabbage soft rot [3]; without mulch-sheet for agricultural use", "value": 72.8}]}, {"compound": "[H]/N=C(/N)N[C@H]1[C@H](O)[C@@H](O)[C@H](O[C@@H]2O[C@@H](C)[C@](O)(C=O)[C@H]2O[C@@H]2O[C@@H](CO)[C@H](O)[C@@H](O)[C@@H]2NC)[C@@H](N/C(N)=N\\[H])[C@@H]1O", "note": "[Streptomycin, streptomycin]", "values": [{"measurement": "Disease incidence rate", "setting": "Chinese cabbage soft rot [1]; [9]", "value": 60.0}, {"measurement": "Disease severity", "setting": "Chinese cabbage soft rot [1]; [9]", "value": 37.8}, {"measurement": "Disease control value", "setting": "Chinese cabbage soft rot [1]; 1/1000 dilution, foliage application twice, Musou", "value": 0}, {"measurement": "Control effect on Chinese cabbage soft rot (in words)", "setting": "Chinese cabbage soft rot [1]", "value": "not observed at all"}]}]}
